Patent US12187709B2 (Genentech, Inc., priority 2021, dated 2025)

Assays:
[1] = molecular target: Human Cbl-b (residues 40-426) (Homo sapiens (Human), UniProt Q13191); assay: Cbl-b SPR assay; format: binding; conditions: for Fold of selectivity: C-cbl SPR Kd vs Cbl-b SPR Kd; for Kd: SPR, 20° C.
Outline: (§1)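 Protein captured at 1300-1500 RU; compounds run as 6-point 2-fold series in multi-cycle kinetics (60 s contact, 40 μl/min, 120-1200 s dissociation), fitted 1:1. For slow binders, kd came from chaser-compound occupancy over time, fixed in a single-cycle fit (5 concentrations, top 500 nM).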

c-Cbl = c-Cbl (Homo sapiens (Human), UniProt P22681); assay: C-Cbl LCK Ub TR-FRET assay (C-cbl Lck HTRF); format: biochemical
Sequence of c-Cbl (P22681 47-435): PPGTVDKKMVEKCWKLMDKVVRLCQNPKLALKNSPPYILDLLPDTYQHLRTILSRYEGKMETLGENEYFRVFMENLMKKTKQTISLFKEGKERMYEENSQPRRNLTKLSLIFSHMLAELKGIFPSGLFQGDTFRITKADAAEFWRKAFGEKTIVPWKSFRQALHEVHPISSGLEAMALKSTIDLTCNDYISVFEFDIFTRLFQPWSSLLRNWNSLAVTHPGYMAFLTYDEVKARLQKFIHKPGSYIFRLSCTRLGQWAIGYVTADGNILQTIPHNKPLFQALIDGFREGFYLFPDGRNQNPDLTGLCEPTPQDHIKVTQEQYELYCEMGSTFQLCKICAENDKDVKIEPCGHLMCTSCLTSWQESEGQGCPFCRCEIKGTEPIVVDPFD
Outline: (§2)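 After the ubiquitination reaction, detection mixture was added and plates incubated 20 min at room temperature before reading. IC50 values were calculated with wells lacking LCK as the low control and DMSO as the high control.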

Cbl-b = Cbl-b (Homo sapiens (Human), UniProt Q13191); assay: Cbl-b LCK Ub TR-FRET assay (Cbl-b Lck HTRF); format: biochemical; conditions: for IC50: Cbl-b LCK Ub TR-FRET, Example 121; for (fold-selectivity) Cbl-b and C-Cbl Selectivity: ratio C-cbl Lck HTRF IC50 / Cbl-b Lck HTRF IC50
Sequence of Cbl-b (Q13191 40-426): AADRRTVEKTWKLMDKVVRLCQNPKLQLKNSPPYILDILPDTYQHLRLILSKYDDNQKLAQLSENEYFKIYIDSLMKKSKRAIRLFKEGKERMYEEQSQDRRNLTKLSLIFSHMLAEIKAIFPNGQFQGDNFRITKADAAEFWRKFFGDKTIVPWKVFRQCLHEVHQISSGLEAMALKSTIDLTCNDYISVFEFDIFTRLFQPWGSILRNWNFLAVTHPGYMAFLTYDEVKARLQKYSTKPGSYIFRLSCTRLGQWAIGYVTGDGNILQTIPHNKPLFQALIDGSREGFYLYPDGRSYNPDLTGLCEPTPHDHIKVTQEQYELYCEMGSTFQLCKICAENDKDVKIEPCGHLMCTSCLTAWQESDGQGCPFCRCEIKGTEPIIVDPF
Outline: as §2

c-Cbl (residues 47-435) = c-Cbl (residues 47-435) (Homo sapiens (Human), UniProt P22681); assay: c-Cbl SPR assay; format: binding; conditions: 20° C.
Sequence of c-Cbl (residues 47-435) (P22681 47-435): as the sequence (P22681 47-435) above
Outline: as §1

Sequence of Human Cbl-b (residues 40-426) (Q13191 40-426): as the sequence (Q13191 40-426) above

SMILES | Fold of selectivity [1] [×] | Kd [1] [nM] | IC50 (c-Cbl) [nM] | IC50 (Cbl-b) [nM] | (fold-selectivity) Cbl-b and C-Cbl Selectivity (Cbl-b) [x] | Kd (c-Cbl (residues 47-435)) [nM]
CO[C@H]1C[C@](c2cccc(N3Cc4c(cc(CNCC5CCC5)cc4C(F)(F)F)C3=O)c2)(c2nncn2C)C1 [Compound 416, 6-(((cyclobutylmethyl)amino)methyl)-2-(3-((1r,3r)-3-methoxy-1-(4-methyl-4H-1,2,4-triazol-3-yl)cyclobutyl)phenyl)-4-(trifluoromethyl)isoindolin-1-one] | 13 | 0.87 | 11 | 7.5 | 1.5 | 12
CO[C@H]1C[C@](c2cccc(N3Cc4c(cc(CN5CCOCC5)cc4C(F)(F)F)C3=O)c2)(c2nncn2C)C1 [Compound 417, 2-(3-((1r,3r)-3-methoxy-1-(4-methyl-4H-1,2,4-triazol-3-yl)cyclobutyl)phenyl)-6-(morpholinomethyl)-4-(trifluoromethyl)isoindolin-1-one] | 7.2 | 1100 | 3200 | 480 | 6.6 | 8600
CO[C@H]1C[C@](c2cccc(N3Cc4c(cc(CN5CCCC5)cc4C(F)(F)F)C3=O)c2)(c2nncn2C)C1 [Compound 418, 2-(3-((1r,3r)-3-methoxy-1-(4-methyl-4H-1,2,4-triazol-3-yl)cyclobutyl)phenyl)-6-(pyrrolidin-1-ylmethyl)-4-(trifluoromethyl)isoindolin-1-one] | 8.7 | 140 | 1400 | 180 | 7.3 | 1200
CO[C@H]1C[C@](c2cccc(N3Cc4c(cc(CNC(C)C)cc4C(F)(F)F)C3=O)c2)(c2nncn2C)C1 [Compound 419, 6-((isopropylamino)methyl)-2-(3-((1r,3r)-3-methoxy-1-(4-methyl-4H-1,2,4-triazol-3-yl)cyclobutyl)phenyl)-4-(trifluoromethyl)isoindolin-1-one] | 8.2 | 32 | 190 | 29 | 6.7 | 240
CO[C@H]1C[C@](c2cccc(N3Cc4c(cc(CNCC(C)C)cc4C(F)(F)F)C3=O)c2)(c2nncn2C)C1 [Compound 421, 6-((isobutylamino)methyl)-2-(3-((1r,3r)-3-methoxy-1-(4-methyl-4H-1,2,4-triazol-3-yl)cyclobutyl)phenyl)-4-(trifluoromethyl)isoindolin-1-one] | 14 | 1.7 | 17 | 6.5 | 2.6 | 24
CO[C@H]1C[C@](c2cccc(N3Cc4c(cc(CN5CC(O)C5)cc4C(F)(F)F)C3=O)c2)(c2nncn2C)C1 [Compound 422, 6-((3-hydroxyazetidin-1-yl)methyl)-2-(3-((1r,3r)-3-methoxy-1-(4-methyl-4H-1,2,4-triazol-3-yl)cyclobutyl)phenyl)-4-(trifluoromethyl)isoindolin-1-one] | 5.3 | 340 | 1600 | 220 | 7.2 | 1800
CO[C@H]1C[C@](c2cccc(N3Cc4c(cc(CN5CC6(CC6)C5)cc4C(F)(F)F)C3=O)c2)(c2nncn2C)C1 [Compound 423, 6-(5-azaspiro[2.3]hexan-5-ylmethyl)-2-(3-((1r,3r)-3-methoxy-1-(4-methyl-4H-1,2,4-triazol-3-yl)cyclobutyl)phenyl)-4-(trifluoromethyl)isoindolin-1-one] | 8.7 | 96 | 500 | 100 | 5.0 | 840
